# Columns and labels:
# Assay in all cases: 3D spheroid formation
# HOC/ADR spheroids = format: cell-based, human; conditions: 1 µM
# Method: (§1) To monitor the effect of selenoesters on spheroid formation, HOC, HOC/ADR, MCF-7 and MCF-7/PAX cell lines were used. 24 h after HOC cells’ inoculation, the diameter of formed spheroids was measured. The spheroids with diameters above 200 µm are characterized by the presence of a concentration gradient of oxygen, nutrients, and metabolites. The ovarian cancer cells (HOC, HOC/ADR) formed aggregates in which single cells could be recognized (Figs. 3, 4). In contrast, breast cancer cell lines (MCF-7, MCF-7/PAX) (Figs. 5, 6) formed compact spheroids where individual cells could not be distinguished because of close cell–cell interactions. According to this fact, the easier penetration and action of compounds into spheroids of ovarian cancer cells is expected. Upon selenoesters’ addition, the images of spheroids were taken regularly to determine their areas relative to the control spheroids in medium containing the solvent (1% V/V DMSO).
# (§2) Human ovarian and breast cancer cells (parental and resistant) were seeded into U bottom 96-well plates (VWR, Radnor, Pennsylvania, United States) coated with 0.8% SeaKem LE Agarose at a cell density 0.5 × 10^5 cells/mL (HOC, HOC/ADR) and 1 × 10^5 cell/mL (MCF-7, MCF-7/PAX) in 100 µL of medium with appropriate cytostatic agent. After 24 h, the plates were enriched with 100 µL of medium with tested compounds K3, K4, K7 at the final concentration of 1 µM, except for control cells (100 µL medium with 1% V/V DMSO). Spheroids were recorded 0; 24; 48 and 72 h after exposure to tested compounds by using the light microscope Axio Vert. A1 (Zeiss, Jena, Germany) with photo documentation equipment, Axiocam ICC 1 and Axio Vision 4.8 software (Zeiss), and the spheroid areas were determined by using ImageJ (National Institute of Health, Bethesda, Maryland, United States). Subsequently, a spheroid growth was calculated according to equation: Spheroid area%=SAS at t/SAC at t×100 where SAS represents the area of spheroids treated with the compound; SAC is the control spheroid area; and the exposure time (t = 0; 24; 48; 72 h).
# MCF-7 spheroids = format: cell-based, human; conditions: 1 µM, whole treatment (24–72 h)
# Method: as §1, §2
# HOC spheroids = format: cell-based; conditions: Homo sapiens, 24 h, read-out: inhibition of HOC spheroid growth
# Method: as §1, with “According to this fact, the easier penetration and action of compounds into spheroids of ovarian cancer cells is expected. Upon selenoesters’ addition, the images of spheroids were taken regularly to determine their areas relative to the control spheroids in medium containing the solvent (1% V/V DMSO).” left out
# Human ovarian and breast cancer cells (parental and resistant) were seeded into U bottom 96-well plates (VWR, Radnor, Pennsylvania, United States) coated with 0.8% SeaKem LE Agarose at a cell density 0.5 × 10^5 cells/mL (HOC, HOC/ADR) and 1 × 10^5 cell/mL (MCF-7, MCF-7/PAX) in 100 µL of medium with appropriate cytostatic agent. […] Spheroids were recorded 0; 24; 48 and 72 h after exposure to tested compounds by using the light microscope Axio Vert. A1 (Zeiss, Jena, Germany) with photo documentation equipment, Axiocam ICC 1 and Axio Vision 4.8 software (Zeiss), and the spheroid areas were determined by using ImageJ (National Institute of Health, Bethesda, Maryland, United States). […]
# MCF-7/PAX spheroids = format: cell-based, human; conditions: 1 µM, first 24 h
# Method: as §1, §2
Structure (SMILES),decrease of HOC/ADR spheroid growth (HOC/ADR spheroids; first 24 h),MCF-7 spheroid growth relative to control (MCF-7 spheroids),inhibition at 1 µM (HOC spheroids),HOC/ADR spheroid area compared to the control (HOC/ADR spheroids),effect on MCF-7/PAX spheroid growth (in words) (MCF-7/PAX spheroids)
CC(=O)C[Se]C(=O)c1ccc(Br)cc1 [K3],45%,under 80%,–,–,–
CC(=O)C[Se]C(=O)c1ccc(C(C)(C)C)cc1 [K7],–,–,> 40%,75%,slowed down

# Source: PMC9023544, “Ketone-selenoesters as potential anticancer and multidrug resistance modulation agents in 2D and 3D ovarian and breast cancer in vitro models” (Scientific Reports, 2022)
